Here are results for seven molecules from PubChem BioAssay AID1259407 (Chemical Carcinogenesis Research Information System (CCRIS), 2018).

Active and inactive are the calls of the source. How the calls were made is not given here.

In this data set the test system is CCRIS mutagenicity, Ames/micronucleus/aberration tests. Put plainly: CCRIS mutagenicity studies.
Setting [1] is: Test System: AMES SALMONELLA TYPHIMURIUM, Strain/Indicator: TA98, Metabolic Activation: NONE, Method: PREINCUBATION
Setting [2] is: Test System: AMES SALMONELLA TYPHIMURIUM, Strain/Indicator: TA100, Metabolic Activation: NONE, Method: PREINCUBATION
[3] abbreviates: Test System: AMES SALMONELLA TYPHIMURIUM, Strain/Indicator: TA102, Metabolic Activation: NONE, Method: PREINCUBATION
Setting [4] is: Test System: AMES SALMONELLA TYPHIMURIUM, Strain/Indicator: TA1535, Metabolic Activation: NONE, Method: PREINCUBATION
The mark [5] stands for this setting: Test System: AMES SALMONELLA TYPHIMURIUM, Strain/Indicator: TA1537, Metabolic Activation: NONE, Method: PREINCUBATION
Setting [6] is: Test System: AMES SALMONELLA TYPHIMURIUM, Strain/Indicator: TA100, Metabolic Activation: NONE, Method: STANDARD PLATE.

In the case of `N#CN=C(N)N`, the mutagenic call by setting is: (Test System: AMES SALMONELLA TYPHIMURIUM, Strain/Indicator: TA98, Metabolic Activation: MAIZE SEEDLING, S-14, Method: PREINCUBATION) “active; positive”; (Test System: AMES SALMONELLA TYPHIMURIUM, Strain/Indicator: TA98, Metabolic Activation: MOUSE, LIVER, S-9, Method: PREINCUBATION) “inactive; negative”; under setting [1], “inactive; negative”; (Test System: AMES SALMONELLA TYPHIMURIUM, Strain/Indicator: TA98, Metabolic Activation: RAT LIVER S-9, PHENOBARBITAL AND BETA-NAPHTHOFLAVONE, Method: PREINCUBATION) “inactive; negative”; (Test System: AMES SALMONELLA TYPHIMURIUM, Strain/Indicator: TA100, Metabolic Activation: MAIZE SEEDLING, S-14, Method: PREINCUBATION) “inactive; negative”; (Test System: AMES SALMONELLA TYPHIMURIUM, Strain/Indicator: TA100, Metabolic Activation: MOUSE, LIVER, S-9, Method: PREINCUBATION) “inactive; negative”. Further, the mutagenic call reads like this: under setting [2], “inactive; negative”; (Test System: AMES SALMONELLA TYPHIMURIUM, Strain/Indicator: TA100, Metabolic Activation: RAT LIVER S-9, PHENOBARBITAL AND BETA-NAPHTHOFLAVONE, Method: PREINCUBATION) “inactive; negative”; under setting [3], “inactive; negative”; (Test System: AMES SALMONELLA TYPHIMURIUM, Strain/Indicator: TA102, Metabolic Activation: RAT LIVER S-9, PHENOBARBITAL AND BETA-NAPHTHOFLAVONE, Method: PREINCUBATION) “inactive; negative”; (Test System: AMES SALMONELLA TYPHIMURIUM, Strain/Indicator: TA104, Metabolic Activation: NONE, Method: PREINCUBATION) “inactive; negative”; (Test System: AMES SALMONELLA TYPHIMURIUM, Strain/Indicator: TA104, Metabolic Activation: RAT LIVER S-9, PHENOBARBITAL AND BETA-NAPHTHOFLAVONE, Method: PREINCUBATION) “inactive; negative”. In addition, the mutagenic call was “inactive; negative” under setting [4]; “inactive; negative” (Test System: AMES SALMONELLA TYPHIMURIUM, Strain/Indicator: TA1535, Metabolic Activation: RAT LIVER S-9, PHENOBARBITAL AND BETA-NAPHTHOFLAVONE, Method: PREINCUBATION); “inactive; negative” under setting [5]; “inactive; negative” (Test System: AMES SALMONELLA TYPHIMURIUM, Strain/Indicator: TA1537, Metabolic Activation: RAT LIVER S-9, PHENOBARBITAL AND BETA-NAPHTHOFLAVONE, Method: PREINCUBATION); “inactive; negative” (Test System: AMES SALMONELLA TYPHIMURIUM, Strain/Indicator: TA1538, Metabolic Activation: NONE, Method: PREINCUBATION); “inactive; negative” (Test System: E.COLI, Strain/Indicator: WP2UVRA/PKM101, Metabolic Activation: NONE, Method: PREINCUBATION). Moreover, the mutagenic call is “inactive; negative” (Test System: E.COLI, Strain/Indicator: WP2UVRA/PKM101, Metabolic Activation: RAT LIVER S-9, PHENOBARBITAL AND BETA-NAPHTHOFLAVONE, Method: PREINCUBATION); “inactive; negative” (Test System: E.COLI, Strain/Indicator: WP2UVRA, Metabolic Activation: NONE, Method: PREINCUBATION); “inactive; negative” (Test System: E.COLI, Strain/Indicator: WP2UVRA, Metabolic Activation: RAT LIVER S-9, PHENOBARBITAL AND BETA-NAPHTHOFLAVONE, Method: PREINCUBATION).

Consider `C1CC2(CCO1)CO2`, for which the mutagenic call (Test System: AMES SALMONELLA TYPHIMURIUM, Strain/Indicator: TA100, Metabolic Activation: STANDARD PLATE) was “active; positive”.

In the case of `CCOC(=O)C(C)Br` (stereo not given), under setting [6], the mutagenic call is “active; positive”.

`O=C(Nc1ccc(Cl)cc1)c1csc([N+](=O)[O-])c1`: the mutagenic call runs as follows: (Test System: AMES SALMONELLA TYPHIMURIUM, Strain/Indicator: TA98, Metabolic Activation: NONE, Method: STANDARD PLATE) “active; positive”; under setting [6], “active; positive”.

On to `C=C(CC(=O)OCC)C(=O)OCC`, for which the mutagenic call (Test System: Chinese hamster ovary cells, Metabolic Activation: None, Method: CHO/HGPRT assay) is “inactive; negative”.

As for `C1COCOC1`, the mutagenic call runs as follows: (Test System: AMES SALMONELLA TYPHIMURIUM, Strain/Indicator: TA98, Metabolic Activation: HAMSTER, LIVER, S-9, AROCLOR 1254, Method: PREINCUBATION) “inactive; negative”; under setting [1], “inactive; negative”; (Test System: AMES SALMONELLA TYPHIMURIUM, Strain/Indicator: TA98, Metabolic Activation: RAT, LIVER, S-9, AROCLOR 1254, Method: PREINCUBATION) “inactive; negative”; (Test System: AMES SALMONELLA TYPHIMURIUM, Strain/Indicator: TA100, Metabolic Activation: HAMSTER, LIVER, S-9, AROCLOR 1254, Method: PREINCUBATION) “inactive; negative”; under setting [2], “inactive; negative”; (Test System: AMES SALMONELLA TYPHIMURIUM, Strain/Indicator: TA100, Metabolic Activation: RAT, LIVER, S-9, AROCLOR 1254, Method: PREINCUBATION) “inactive; negative”. Besides, the mutagenic call (Test System: AMES SALMONELLA TYPHIMURIUM, Strain/Indicator: TA1535, Metabolic Activation: HAMSTER, LIVER, S-9, AROCLOR 1254, Method: PREINCUBATION) was “inactive; negative”; the mutagenic call under setting [4] was “inactive; negative”; the mutagenic call (Test System: AMES SALMONELLA TYPHIMURIUM, Strain/Indicator: TA1535, Metabolic Activation: RAT, LIVER, S-9, AROCLOR 1254, Method: PREINCUBATION) was “inactive; negative”; the mutagenic call (Test System: AMES SALMONELLA TYPHIMURIUM, Strain/Indicator: TA1537, Metabolic Activation: HAMSTER, LIVER, S-9, AROCLOR 1254, Method: PREINCUBATION) was “inactive; negative”; the mutagenic call under setting [5] was “inactive; negative”; the mutagenic call (Test System: AMES SALMONELLA TYPHIMURIUM, Strain/Indicator: TA1537, Metabolic Activation: RAT, LIVER, S-9, AROCLOR 1254, Method: PREINCUBATION) was “inactive; negative”.

Take `CC[N+](=O)[O-]`: the mutagenic call runs as follows: under setting [1], “inactive; negative”; (Test System: AMES SALMONELLA TYPHIMURIUM, Strain/Indicator: TA98, Metabolic Activation: RAT, LIVER, S-9, KANECHLOR 500, Method: PREINCUBATION) “inactive; negative”; under setting [2], “inactive; negative”; (Test System: AMES SALMONELLA TYPHIMURIUM, Strain/Indicator: TA100, Metabolic Activation: RAT, LIVER, S-9, KANECHLOR 500, Method: PREINCUBATION) “inactive; negative”; under setting [3], “inactive; negative”; (Test System: E. COLI, Strain/Indicator: WP2 UVRA (PKM101), Metabolic Activation: NONE, Method: PREINCUBATION) “inactive; negative”. Besides, the mutagenic call (Test System: E. COLI, Strain/Indicator: WP2 UVRA (PKM101), Metabolic Activation: RAT, LIVER, S-9, KANECHLOR 500, Method: PREINCUBATION) was “inactive; negative”.
